Test results published in patent US11357857B2, “Excipient compounds for protein processing” (COMERA LIFE SCIENCES, INC., priority 2014, dated 2022).
“And” between values parts separate entries of the source, which are not always exact repeats. Identical values can stand only once. Counter-ions that a name gives are not always drawn. Like-named read-outs stand apart in the source and are kept apart here. Each block holds one compound with its values, some of them ahead of it. Residues, ends and D or L forms follow the SMILES beside them.

Assays:
[1] = system: bovine gamma globulin (BGG); assay: Normalized viscosity of 280 mg/mL BGG in 50 mM histidine HCl with primary/secondary excipient combinations (Example 10); format: physicochemical
Protocol: The primary excipient compounds were selected from compounds having both anionic and aromatic functionality, as listed below in Table 5. The secondary excipient compounds were selected from compounds having either nonionic or cationic charge at pH 6 and either imidazoline or benzene rings, as listed below in Table 5. Formulations of these excipients were prepared in 50 mM histidine hydrochloride buffer solution for viscosity measurement in the following way. […] The individual primary or secondary excipient compounds were then dissolved in 50 mM histidine HCl.

[2] = system: bovine gamma globulin (BGG); assay: Normalized viscosity of 280 mg/mL BGG in distilled water with excipient combinations (Example 11); format: physicochemical; conditions: primary excipient 20 mg/mL, no secondary
Protocol: The primary excipient compounds were selected from compounds having both anionic and aromatic functionality, as listed below in Table 6. The secondary excipient compounds were selected from compounds having either nonionic or cationic charge at pH 6 and either imidazoline or benzene rings, as listed below in Table 6. Formulations of these excipients were prepared in distilled water for viscosity measurement in the following way. […].

[3] = system: bovine gamma globulin (BGG)
[4] = system: bovine gamma globulin (BGG); assay: Normalized viscosity of 280 mg/mL BGG in 20 mM histidine with local anesthetic excipients (Example 21); format: physicochemical; conditions: no B
Text: The first excipient compound, Excipient A, was selected from a group of compounds having local anesthetic properties.

[5] = Caffeine solubility testing with co-solutes at ambient temperature (Examples 32-33); conditions: for Observation of caffeine dissolution: caffeine 80 mg/mL; for Dissolution of caffeine enabled relative to reported solubility limit: co-solute in water, ambient temperature (about 23 C)
Protocol: Prepared solutions were used either neat or diluted with deionized water.
A small magnetic stir bar was added to the vial, and the solution was allowed to mix vigorously on a stir plate for about 10 minutes.

[6] = excipient 10 mg/mL
[7] = system: bovine gamma globulin (BGG); assay: Viscosity of 280 mg/mL BGG formulations in 50 mM histidine HCl pH 6 with excipient, cone and plate viscometer (Examples 1, 2, 4-6); format: physicochemical
[8] = biological target: T1, PEGylated BSA (1 PEG chain per BSA molecule) (Bos taurus, UniProt P02769); assay: Viscosity of PEGylated BSA with 1 PEG chain per BSA with excipient, microVisc (Example 17); format: physicochemical
T1 construct: purchased Aldrich A7906
Protocol: To a beaker was added 200 mL of a phosphate buffered saline (Aldrich Cat. #P4417) and 4 g of BSA (Aldrich Cat. #A7906) and mixed with a magnetic bar. Next 400 mg of methoxy polyethylene glycol maleimide, MW=5,000, (Aldrich Cat. #63187) was added. The reaction mixture was allowed to react overnight at room temperature. The following day, 20 drops of HCl 0.1 M were added to stop the reaction. […] The reaction mixture was placed in an Amicon centrifuge tube with a molecular weight cutoff (MWCO) of 30,000 and concentrated to a few milliliters. Next the sample was diluted 20 times with a histidine buffer, 50 mM at a pH of approximately 6, followed by concentrating until a high viscosity fluid was obtained.
The viscometer measurements were completed at ambient temperature.

[9] = system: bovine gamma globulin (BGG); assay: Normalized viscosity of 280 mg/mL BGG in 20 mM histidine with excipients A/B (Example 20); format: physicochemical; conditions: no B
Text: Excipient compounds for this Example are listed below in Table 11.

[10] = Viscosity of PEG (Mw ~1,000,000) solution in Tris buffer with excipient (Examples 12-13); format: physicochemical
[11] = system: bovine gamma globulin (BGG); assay: Normalized viscosity of 280 mg/mL BGG in 20 mM histidine with dimethyl sulfone (Example 42); format: physicochemical
Protocol: Such formulations were prepared in 20 mM histidine buffer for viscosity measurement in the following way. […].

PEGylated lysozyme = PEGylated lysozyme (Gallus gallus, UniProt P00698); conditions: excipient 20 mg/mL
[12] = system: bovine gamma globulin (BGG); assay: Viscosity of 280 mg/mL BGG in histidine buffer pH 6 versus amount of arginine or caffeine added (Example 24); format: physicochemical
[13] = system: bovine gamma globulin (BGG); conditions: arginine 25 mg/ml
Protocol: Each buffer solution contained different excipient or combination of excipients as described in the table below. The viscosity of the solutions was measured as described in previous examples.

[14] = primary excipient 30 mg/mL, no secondary

T1 sequence (P02769 25-607): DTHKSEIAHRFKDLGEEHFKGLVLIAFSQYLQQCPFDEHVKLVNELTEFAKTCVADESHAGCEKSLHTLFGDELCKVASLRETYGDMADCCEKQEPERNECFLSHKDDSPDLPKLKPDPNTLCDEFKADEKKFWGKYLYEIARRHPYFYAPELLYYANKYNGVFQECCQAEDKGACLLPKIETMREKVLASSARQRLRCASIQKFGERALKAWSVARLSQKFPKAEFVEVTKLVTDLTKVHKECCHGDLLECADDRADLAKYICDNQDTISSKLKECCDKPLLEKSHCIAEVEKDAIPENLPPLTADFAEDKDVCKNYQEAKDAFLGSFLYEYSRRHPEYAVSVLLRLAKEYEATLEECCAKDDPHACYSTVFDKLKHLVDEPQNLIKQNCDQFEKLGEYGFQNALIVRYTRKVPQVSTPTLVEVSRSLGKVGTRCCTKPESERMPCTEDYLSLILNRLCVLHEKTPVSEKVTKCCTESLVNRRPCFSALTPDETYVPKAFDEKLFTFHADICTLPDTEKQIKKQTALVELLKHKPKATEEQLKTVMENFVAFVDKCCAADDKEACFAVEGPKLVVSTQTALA
Sequence of PEGylated lysozyme (P00698 19-147): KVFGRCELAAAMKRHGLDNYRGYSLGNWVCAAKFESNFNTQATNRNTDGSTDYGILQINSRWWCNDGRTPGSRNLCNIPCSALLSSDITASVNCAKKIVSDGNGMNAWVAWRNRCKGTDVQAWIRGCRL

Viscosity Reduction ([3]; excipient 50 mg/mL): 47%
Normalized Viscosity ([4]; excipient A 40 mg/mL): 0.64
Observation of caffeine dissolution ([5]; co-solute 30 mg/mL): DND
Observation of caffeine dissolution ([5]; co-solute 40 mg/mL): DND
Dissolution of caffeine enabled relative to reported solubility limit [5]: at least about four times
Compound: CCN(CC)CCOC(=O)c1ccc(N)cc1 [Procaine HCl]

Normalized Viscosity ([4]; excipient A 23 mg/mL): 0.74
Normalized Viscosity ([4]; excipient A 45 mg/mL): 0.73
Compound: CCN(CC)CC(=O)Nc1c(C)cccc1C [Lidocaine]

Viscosity Reduction ([3]; excipient 50 mg/mL): 49%
Observation of caffeine dissolution ([5]; co-solute 30 mg/mL): DND
Viscosity ([7]; excipient 48 mg/mL): 39 cP
Viscosity Reduction ([7]; excipient 48 mg/mL): 51%
Compound: NC(=O)c1cccnc1 [Niacinamide]

Viscosity ([8]; excipient 20 mg/mL): 151.5 cP
Viscosity Reduction ([8]; excipient 20 mg/mL): 34%
Compound: Alpha-Cyclodextrin sulfated Na salt

Normalized Viscosity ([9]; excipient A 30 mg/mL): 0.58
Normalized Viscosity ([9]; excipient A 60 mg/mL): 0.51
Compound: O=C1NS(=O)(=O)c2ccccc21 [Saccharin]

Normalized Viscosity ([1]; no primary, secondary excipient 5 mg/mL): 0.75
Compound: c1c[nH]cn1 [Imidazole]

Normalized Viscosity ([9]; excipient A 10 mg/mL): 0.84
Compound: Cn1c(=O)c2[nH]cnc2n(C)c1=O [Theophylline]

Normalized Viscosity ([11]; dimethyl sulfone 15 mg/mL): 0.92
Normalized Viscosity ([11]; dimethyl sulfone 30 mg/mL): 0.71 and 0.72
Normalized Viscosity ([11]; dimethyl sulfone 50 mg/mL): 0.71
Compound: CS(C)(=O)=O [Dimethyl sulfone]

Observation of caffeine dissolution ([5]; co-solute 45 mg/mL): DND
Dissolution of caffeine enabled relative to reported solubility limit [5]: at least about four times
Compound: O=C1NS(=O)(=O)c2ccccc21.[Na] [Saccharin, Na, saccharin sodium salt]

Normalized Viscosity ([9]; excipient A 10 mg/mL): 0.83
Compound: COC(=O)[C@H](Cc1ccccc1)NC(=O)[C@@H](N)CC(=O)O [Aspartame] (H-Asp-Phe-OMe)

The next lines start with the compound.

Compound: O=C(O)c1ccccc1O [Salicylic Acid]
Normalized Viscosity [1, 14]: 0.79
Normalized Viscosity [2]: 0.96

Compound: O=P([O-])([O-])[O-].[K+].[K+].[K+] [Potassium phosphate, potassium phosphate tribasic]
Viscosity [6]: 72.3 cP
Viscosity Reduction [6]: 9.3%

Compound: O=S(=O)([O-])[O-].[Na+].[Na+] [Sodium sulfate]
Viscosity [6]: 75.1 cP
Viscosity Reduction [6]: 5.8%

Compound: O=C(O)CC(O)(CC(=O)O)C(=O)O
Viscosity [6]: 74.9 cP
Viscosity Reduction [6]: 6.0%
Viscosity ([10]; excipient 20 mg/mL): 73.3 cP
Viscosity Reduction ([10]; excipient 20 mg/mL): 28%
Viscosity ([10]; excipient 40 mg/mL): 56.8 cP
Viscosity Reduction ([10]; excipient 40 mg/mL): 44%

Compound: O=S(=O)(O)c1ccc(O)cc1 [4-hydroxybenzene sulfonic acid]
Normalized Viscosity ([1]; primary excipient 31 mg/mL, no secondary): 0.59

Compound: CC(=O)[O-].[K+] [K acetate, potassium acetate]
Viscosity (PEGylated lysozyme): 22.6 cP
Viscosity Reduction (PEGylated lysozyme): 8%
Viscosity ([8]; excipient 40 mg/mL): 89.5 cP
Viscosity Reduction ([8]; excipient 40 mg/mL): 60%

Compound: N=C(N)NCCC[C@H](N)C(=O)O [Arginine]
Viscosity ([12]; arginine added 53 mg/mL): 40.9 cP
Viscosity Reduction ([12]; arginine added 53 mg/mL): 48%
Viscosity ([12]; arginine added 79 mg/mL): 46.1 cP
Viscosity Reduction ([12]; arginine added 79 mg/mL): 42%
Viscosity ([12]; arginine added 105 mg/mL): 47.8 cP
Viscosity Reduction ([12]; arginine added 105 mg/mL): 40%
Viscosity ([12]; arginine added 132 mg/mL): 49.0 cP
Viscosity Reduction ([12]; arginine added 132 mg/mL): 38%
Viscosity ([12]; arginine added 158 mg/mL): 48.0 cP
Viscosity Reduction ([12]; arginine added 158 mg/mL): 39%
Viscosity ([12]; arginine added 174 mg/mL): 50.3 cP
Viscosity Reduction ([12]; arginine added 174 mg/mL): 36%
Viscosity ([12]; arginine added 211 mg/mL): 51.4 cP
Viscosity Reduction ([12]; arginine added 211 mg/mL): 35%
Viscosity [13]: 76.7 cP
Viscosity Reduction [13]: 41%

Compound: CN(C)C1CCCCC1 [DMCHA-HCl, dimethylcyclohexylamine]
Viscosity Reduction ([3]; excipient 120 mg/mL): 56%
Viscosity [7]: 35 cP
Viscosity Reduction [7]: 56%
Viscosity ([7]; excipient 28 mg/mL): 50 cP
Viscosity Reduction ([7]; excipient 28 mg/mL): 37%
Viscosity ([7]; excipient 41 mg/mL): 43 cP
Viscosity Reduction ([7]; excipient 41 mg/mL): 46%
Viscosity ([7]; excipient 50 mg/mL): 45 cP
Viscosity Reduction ([7]; excipient 50 mg/mL): 43%
Viscosity ([7]; excipient 82 mg/mL): 36 cP
Viscosity Reduction ([7]; excipient 82 mg/mL): 54%
Viscosity ([7]; excipient 164 mg/mL): 40 cP
Viscosity Reduction ([7]; excipient 164 mg/mL): 49%

Compound: Cl.NCCc1ccc(O)cc1 [Tyramine HCl]
Viscosity Reduction ([3]; excipient 70 mg/mL): 59%
Observation of caffeine dissolution ([5]; co-solute 30 mg/mL): DND
Dissolution of caffeine enabled relative to reported solubility limit [5]: at least about four times

Compound: CC1=CC(=O)NS(=O)(=O)O1 [Acesulfame K, acesulfame potassium]
Normalized Viscosity ([9]; excipient A 40 mg/mL): 0.61
Normalized Viscosity ([9]; excipient A 80 mg/mL): 0.44
Observation of caffeine dissolution ([5]; co-solute 80 mg/mL): DND

Compound: O=C(O)c1ccc(O)cc1 [4-hydroxybenzoic acid]
Normalized Viscosity [1, 14]: 0.61
